Reference: ChEMBL document CHEMBL1201862, “PubChem BioAssay data set” (2004)
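Following 48 hours of exposure in 96-well plates, responses at five concentrations were used to interpolate endpoints linearly. Here, GI50 denotes the concentration required for 50% inhibition of growth.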 Active and inactive are the calls of the source. Rule as the data show it: active = GI50 up to about 1.1 µM and inactive = higher.

Assays:
Test in all cases: NCI tumour cell line growth inhibition, 48 h
[1] = tested on: 786-0
[2] = tested on: A498
[3] = tested on: A549
[4] = tested on: ACHN
[5] = tested on: BT-549
[6] = tested on: CAKI-1
[7] = tested on: CCRF-CEM
[8] = tested on: COLO 205
[9] = tested on: DU-145
[10] = tested on: EKVX
[11] = tested on: HCC 2998
[12] = tested on: HCT-116
[13] = tested on: HCT-15
[14] = tested on: HL-60
[15] = tested on: HOP-62
[16] = tested on: HOP-92
[17] = tested on: HT-29
[18] = tested on: Hs-578T
[19] = tested on: IGROV-1
[20] = tested on: KM12
[21] = tested on: LOX IMVI
[22] = tested on: M14
[23] = tested on: MCF7
[24] = tested on: MDA-MB-231
[25] = tested on: MDA-MB-435
[26] = tested on: MDA-N
[27] = tested on: MOLT-4
[28] = tested on: Malme-3M
[29] = tested on: NCI-H226
[30] = tested on: NCI-H23
[31] = tested on: NCI-H460
[32] = tested on: NCI-H522
[33] = tested on: NCI/ADR-RES
[34] = tested on: OVCAR-4
[35] = tested on: OVCAR-5
[36] = tested on: OVCAR-8
[37] = tested on: PC-3
[38] = tested on: RPMI-8226
[39] = tested on: RXF 393
[40] = tested on: SF-268
[41] = tested on: SF-295
[42] = tested on: SK-MEL-28
[43] = tested on: SK-MEL-2
[44] = tested on: SK-MEL-5
[45] = tested on: SK-OV-3
[46] = tested on: SN12C
[47] = tested on: SNB-19
[48] = tested on: SNB-75
[49] = tested on: SR
[50] = tested on: SW-620
[51] = tested on: T47D
[52] = tested on: TK-10
[53] = tested on: U-251
[54] = tested on: UACC-257
[55] = tested on: UACC-62
[56] = tested on: UO-31

N#Cc1nc2ccccc2nc1N1CCN(c2ccc([N+](=O)[O-])cc2)CC1
GI50 [1]: > 100 µM (inactive)
GI50 [2]: > 100 µM (inactive)
GI50 [3]: > 100 µM (inactive)
GI50 [4]: > 100 µM (inactive)
GI50 [5]: > 100 µM (inactive)
GI50 [6]: > 100 µM (inactive)
GI50 [7]: > 100 µM (inactive)
GI50 [8]: > 100 µM (inactive)
GI50 [9]: > 100 µM (inactive)
GI50 [10]: > 100 µM (inactive)
GI50 [11]: > 100 µM (inactive)
GI50 [12]: > 100 µM (inactive)
GI50 [13]: > 100 µM
GI50 [14]: > 100 µM (inactive)
GI50 [15]: > 100 µM (inactive)
GI50 [16]: > 100 µM (inactive)
GI50 [17]: > 100 µM (inactive)
GI50 [18]: > 100 µM (inactive)
GI50 [19]: > 100 µM (inactive)
GI50 [20]: > 100 µM (inactive)
GI50 [21]: > 100 µM (inactive)
GI50 [22]: > 100 µM (inactive)
GI50 [23]: > 100 µM (inactive)
GI50 [24]: > 100 µM (inactive)
GI50 [25]: > 100 µM (inactive)
GI50 [26]: > 100 µM (inactive)
GI50 [27]: 0.106 µM (active)
GI50 [28]: > 100 µM (inactive)
GI50 [29]: > 100 µM (inactive)
GI50 [30]: > 100 µM (inactive)
GI50 [31]: > 100 µM (inactive)
GI50 [32]: > 100 µM (inactive)
GI50 [33]: > 100 µM (inactive)
GI50 [34]: > 100 µM (inactive)
GI50 [35]: > 100 µM (inactive)
GI50 [36]: > 100 µM (inactive)
GI50 [37]: > 100 µM (inactive)
GI50 [38]: > 100 µM (inactive)
GI50 [39]: > 100 µM (inactive)
GI50 [40]: > 100 µM (inactive)
GI50 [41]: > 100 µM (inactive)
GI50 [42]: > 100 µM (inactive)
GI50 [43]: > 100 µM (inactive)
GI50 [44]: > 100 µM (inactive)
GI50 [45]: > 100 µM (inactive)
GI50 [46]: > 100 µM (inactive)
GI50 [47]: > 100 µM (inactive)
GI50 [48]: > 100 µM (inactive)
GI50 [49]: 0.0339 µM (active)
GI50 [50]: > 100 µM (inactive)
GI50 [51]: > 100 µM (inactive)
GI50 [52]: > 100 µM (inactive)
GI50 [53]: > 100 µM (inactive)
GI50 [54]: > 100 µM (inactive)
GI50 [55]: > 100 µM (inactive)
GI50 [56]: > 100 µM (inactive)
